Data reported in patent publication US20240002429A1, “PRODRUG OF 5a-HYDROXY-6ß-[2-(1H-IMIDAZOL-4-YL)ETHYLAMINO]CHOLESTAN-3ß-OL AND PHARMACEUTICAL COMPOSITIONS COMPRISING SAME FOR USE IN THE TREATMENT OF CANCER” (priority 2020, published 2024).
Like-named read-outs stand apart in the source and are kept apart here.

Tested on: 4T1 cells
Assay: Cytotoxicity on 4T1 cells, LDH
Type: cell-based, murine
Conditions: Mus musculus, 4T1, LDH, 48 h
Description: The cellular viability tests were carried out on murine mammary tumor 4T1 cells characterized as negative triples (HER2−, ER−, PR−).
For this experiment, a cell culture medium was prepared. The culture medium consists of Dulbecco's Modified Eagle Medium (DMEM, marketed by Westburg under the reference LO BE12-604F), comprising 4.5 g/L glucose with L-glutamine, to which 10% of fetal calf serum (FCS) and 50 U/mL of penicillin/streptomycin are added. The 4T1 cells are introduced into this culture medium.
96-well plates were seeded with 2000 4T1 cells per well. After 72 hours (h) of culture in normal conditions, i.e. in an incubator at a temperature of 37° C. at 5% CO2, the 4T1 cells are treated for 48 h with DX101, DX107, DX113, DX117, DX119, DX121 or DX131 at 100 nM, 1 μM, 2.5 μM and 10 μM. A control condition (CTL) is also carried out in parallel using the protocol described above but without treatment with the molecules DX101, DX107, DX113, DX117, DX119, DX121, DX131 or DX133.
For the second method, the percentage viability is determined using assay of the activity of the enzyme LDH (lactate dehydrogenase) in the cellular supernatants using the kit non radioactive cytotoxicity assay kit (Promega). LDH is an enzyme released in the supernatant of dead cells. The higher the LDH activity in the supernatant, the greater is the cell death. In this enzyme test, the LDH released converts a violet tetrazolium salt to formazan, of red color, absorbing at 490 nm. The intensity of the red color is proportional to the number of dead cells. After 48 h of treatment, the supernatants are transferred to a new 96-well plate and are incubated for 30 minutes in the presence of the substrate mix at room temperature. The reaction is stopped using the stop buffer and the absorbance is determined at 490 nm. The percentage cell death is determined here using a control 100% of maximum activity of LDH (carried out with untreated cells incubated in the presence of the lysis solution for 45 minutes at 37° C. just before adding the substrate mix), and the cellular viability in each well is then deduced from this percentage. IC50 is then determined as explained in the preceding paragraph.

CCC(=O)O[C@H]1CC[C@]2(C)[C@H]3CC[C@]4(C)[C@@H]([C@H](C)CCCC(C)C)CC[C@H]4[C@@H]3C[C@@H](NCCc3c[nH]cn3)[C@@]2(O)C1 [DX107, 5α-hydroxy-6β-[2-(1H-imidazol-4-yl)ethylamino]cholestan-3β-yl propionate]
IC50 (log of IC50 in μM, read-out: Mean LogIC50 (±SEM) (converted)): 3.31 µM
IC50 (read-out: IC50): 3.29 µM
